From US5411984A, “Water soluble analogs and prodrugs of taxol” (Virginia Tech Intellectual Properties, Inc., priority 1992, dated 1995)

What was measured:
metastatic breast cancer = settings: in vivo; cited from earlier work
tubulin = settings: cited from earlier work
[1] = Cremophor EL diluent, without prolonged infusion and premedication with antiallergic drugs; cited from earlier work
[2] = cited from earlier work
[3] = Relative solubility by the 1-octanol and water partition method (UV absorption at 228 nm), taxol = 1
Experimental: In separate experiments, taxol derivative 4 and 2'-succinyl taxol (R=NaO2 CCH2 CH2 CO2) were dissolved in a mildly basic aqueous solution.
*Solubilities were determined by using the 1octanol and water partition
method.Sample concentrations in water were determined by UV absorptions a […]

[4] = system: drug-refractory ovarian cancer; settings: in vivo; cited from earlier work
[5] = Magri and Kingston; cited from earlier work
P-388 = settings: cited from earlier work
[6] = Deutsch et al.; cited from earlier work
[7] = Stability in pH 5 buffer / mildly acidic aqueous solution (HPLC or TLC, onset of cloudiness); format: physicochemical; settings: method (b): 0.5 mg in 0.1 ml EtOH and 0.9 ml pH 5 buffer, room temperature
Experimental: **Stabilities were determined in pH 5 buffer solution by one of the two
methods indicated below.
(a) 9.5 mg of sample was dissolved in 0.2 ml of EtOH and 0.2 ml of pH 5
buffer solution and let stand at room temperature. The progress of
decomposition was checked by HPLC or TLC and observation of the onset of
(b) 0.5 mg of sample was dissolved in 0.1 ml of EtOH and 0.9 ml of pH 5
buffer solution, the other conditions were the same as in (a) above. All
samples were stable under these conditions for at least 24 hours. No
hydrolysis was detectable by HPLC or TLC during this time period.

Solubility in pure water = format: physicochemical
[8] = cited from earlier work; remark: listed apart in the source
[9] = cited from earlier work; remark: listed apart in the source

CC(=O)O[C@H]1C(=O)[C@@]2(C)[C@H]([C@H](OC(=O)c3ccccc3)[C@]3(O)C[C@H](OC(=O)[C@H](O)[C@@H](NC(=O)c4ccccc4)c4ccccc4)C(C)=C1C3(C)C)[C@]1(OC(C)=O)CO[C@@H]1C[C@@H]2O [Taxol]
clinical activity in metastatic breast cancer (metastatic breast cancer): active drug
effect on depolymerization of tubulin (tubulin): prevents depolymerization of the tubulin
effect on microtubule / tubulin polymer formation (tubulin): promotes formation of microtubules
allergic reactions [1]: severe allergic reactions and even death
aqueous solubility [2]: low water solubility
Relative Solubility (p') [3]: 1
clinical activity against drug-refractory ovarian cancer [4]: excellent clinical activity

CC(=O)O[C@H]1C(=O)[C@@]2(C)[C@H]([C@H](OC(=O)c3ccccc3)[C@]3(O)C[C@H](OC(=O)[C@H](O[Si](C)(C)C(C)(C)C)[C@@H](NC(=O)c4ccccc4)c4ccccc4)C(C)=C1C3(C)C)[C@]1(OC(C)=O)CO[C@@H]1C[C@@H]2O [2'-(t-butyldimethylsilyl) taxol]
biological activity [5]: essentially inactive

CC(=O)O[C@H]1C(=O)[C@@]2(C)[C@H]([C@H](OC(=O)c3ccccc3)[C@]3(O)C[C@H](OC(=O)[C@H](OC(=O)CCC(=O)O)[C@@H](NC(=O)c4ccccc4)c4ccccc4)C(C)=C1C3(C)C)[C@]1(OC(C)=O)CO[C@@H]1C[C@@H]2O [Compound 2, 2'-succinyltaxol]
P-388 in vivo activity compared with taxol (P-388): diminished
aqueous solubility [2]: increased water solubility

CC(=O)O[C@H]1C(=O)[C@@]2(C)[C@H]([C@H](OC(=O)c3ccccc3)[C@]3(O)C[C@H](OC(=O)[C@H](OC(=O)CCCC(=O)NCCCN(C)C)[C@@H](NC(=O)c4ccccc4)c4ccccc4)C(C)=C1C3(C)C)[C@]1(OC(C)=O)CO[C@@H]1C[C@@H]2O
antitumor activity [6]: good solubility and bioactivity

CC(=O)O[C@H]1C(=O)[C@@]2(C)[C@H]([C@H](OC(=O)c3ccccc3)[C@]3(O)C[C@H](OC(=O)[C@H](OC(=O)c4cc(C(=O)O)c(C(=O)O)cc4C(=O)O)[C@@H](NC(=O)c4ccccc4)c4ccccc4)C(C)=C1C3(C)C)[C@]1(OC(C)=O)CO[C@@H]1C[C@@H]2O [Compound 9b, Taxol 2'-(trisodium 1,2,4,5-benzenetetracarboxylate)]
times more water soluble than taxol ([3]; compared with taxol): more than 1500 times
Stabilities at pH 5 [7]: > 24 h
solubility (Solubility in pure water): > 227 mg/mL

CC(=O)O[C@H]1C(=O)[C@@]2(C)[C@H]([C@H](OC(=O)c3ccccc3)[C@]3(O)C[C@H](OC(=O)[C@H](OC(=O)CCN)[C@@H](NC(=O)c4ccccc4)c4ccccc4)C(C)=C1C3(C)C)[C@]1(OC(C)=O)CO[C@@H]1C[C@@H]2O [Compound 1, 2'-(β-alanyl)-taxol]
aqueous solubility [2]: increased water solubility
in vivo activity [8]: active in vivo

CC(=O)O[C@H]1C(=O)[C@@]2(C)[C@H]([C@H](OC(=O)c3ccccc3)[C@]3(O)C[C@H](OC(=O)[C@H](OC(C)=O)[C@@H](NC(=O)c4ccccc4)c4ccccc4)C(C)=C1C3(C)C)[C@]1(OC(C)=O)CO[C@@H]1C[C@@H]2O [2'-acetyltaxol]
hydrolysis of acyl substituents under in vivo conditions [9]: readily hydrolyzed
